Reference: patent publication US20260232767A1, “INTERLEUKIN-23 RECEPTOR ANTAGONIST PEPTIDES FOR USE IN THE TREATMENT OF PSORIASIS” (Janssen Pharmaceutica NV, priority 2023, published 2026)

Test system: subjects with moderate-to-severe plaque psoriasis
Assay: Suicidal ideation or behavior (Columbia-Suicide Severity Rating Scale)
[1] = Combined (all regimens), Week 16-56
[2] = Placebo → 100 mg QD, Week 16-56
[3] = Placebo → 100 mg QD, through Week 56

Procedure: Adverse events were reported and followed by the investigator. Any clinically relevant changes occurring during the study were recorded. Any clinically significant abnormalities persisting at the end of the study/early withdrawal were followed by the investigator until resolution or until a clinically stable condition was reached if possible. The evaluations of safety and tolerability include: physical examinations, vital signs, electrocardiograms, clinical safety laboratory assessments, review of concomitant medication, pregnancy testing, suicidal ideation evaluation via the Columbia—Suicide Severity Rating Scale, and tuberculosis evaluation.

CC(=O)NCCCC[C@@H]1NC(=O)[C@H](Cc2c[nH]c3c(C)cccc23)NC(=O)[C@H]([C@@H](C)O)NC(=O)[C@H](CC(N)=O)NC(=O)[C@@H](NC(C)=O)C(C)(C)SSC(C)(C)[C@@H](C(=O)N[C@@H](Cc2ccc(OCCN)cc2)C(=O)N[C@@H](Cc2ccc3ccccc3c2)C(=O)NC2(C(=O)N[C@@H](CCC(=O)O)C(=O)N[C@@H](CC(N)=O)C(=O)N[C@@H](Cc3cccnc3)C(=O)N(C)CC(N)=O)CCOCC2)NC1=O [IL-23 receptor antagonist peptide, Ac-[Pen]*-N-T-[W(7-Me)]-[Lys(Ac)]-[Pen]*-Phe[4-(2-aminoethoxy)]-[2-Nal]-[THP]-E-N-[3-Pal]-Sarc-NH2 (*[Pen]-[Pen]* formdisulfidebond)]
0: Subjects with 1 - Wish to be dead (25 mg BID, Week 16-56) | Subjects with 2 - Non-specific active suicidal thoughts (25 mg BID, Week 16-56) | Subjects with 3 - Active suicidal ideation with any methods (not plan) without intent to act (25 mg BID, Week 16-56) | Subjects with 4 - Active suicidal ideation with some intent to act, without specific plan (25 mg BID, Week 16-56) | Subjects with 5 - Active suicidal ideation with specific plan and intent (25 mg BID, Week 16-56) | Subjects with 6 - Preparatory acts or behavior (25 mg BID, Week 16-56) | Subjects with 7 - Aborted attempt (25 mg BID, Week 16-56) | Subjects with 8 - Interrupted attempt (25 mg BID, Week 16-56) | Subjects with 9 - Non-fatal suicide attempt (25 mg BID, Week 16-56) | Subjects with 10 - Completed suicide (25 mg BID, Week 16-56) | Subjects with suicidal behavior (25 mg BID, Week 16-56) | Subjects with suicidal ideation (25 mg BID, Week 16-56) | Subjects with suicidal ideation or behavior (25 mg BID, Week 16-56) | Subjects with 1 - Wish to be dead (25 mg BID, through Week 56) | Subjects with 2 - Non-specific active suicidal thoughts (25 mg BID, through Week 56) | Subjects with 3 - Active suicidal ideation with any methods (not plan) without intent to act (25 mg BID, through Week 56) | Subjects with 4 - Active suicidal ideation with some intent to act, without specific plan (25 mg BID, through Week 56) | Subjects with 5 - Active suicidal ideation with specific plan and intent (25 mg BID, through Week 56) | Subjects with 6 - Preparatory acts or behavior (25 mg BID, through Week 56) | Subjects with 7 - Aborted attempt (25 mg BID, through Week 56) | Subjects with 8 - Interrupted attempt (25 mg BID, through Week 56) | Subjects with 9 - Non-fatal suicide attempt (25 mg BID, through Week 56) | Subjects with 10 - Completed suicide (25 mg BID, through Week 56) | Subjects with suicidal behavior (25 mg BID, through Week 56) | Subjects with suicidal ideation (25 mg BID, through Week 56) | Subjects with suicidal ideation or behavior (25 mg BID, through Week 56) | Subjects with 1 - Wish to be dead (25 mg QD, through Week 56) | Subjects with 2 - Non-specific active suicidal thoughts (25 mg QD, through Week 56) | Subjects with 3 - Active suicidal ideation with any methods (not plan) without intent to act (25 mg QD, through Week 56) | Subjects with 4 - Active suicidal ideation with some intent to act, without specific plan (25 mg QD, through Week 56) | Subjects with 5 - Active suicidal ideation with specific plan and intent (25 mg QD, through Week 56) | Subjects with 6 - Preparatory acts or behavior (25 mg QD, through Week 56) | Subjects with 7 - Aborted attempt (25 mg QD, through Week 56) | Subjects with 8 - Interrupted attempt (25 mg QD, through Week 56) | Subjects with 9 - Non-fatal suicide attempt (25 mg QD, through Week 56) | Subjects with 10 - Completed suicide (25 mg QD, through Week 56) | Subjects with suicidal behavior (25 mg QD, through Week 56) | Subjects with suicidal ideation (25 mg QD, through Week 56) | Subjects with suicidal ideation or behavior (25 mg QD, through Week 56) | Subjects with 1 - Wish to be dead (25 mg QD, Week 16-56) | Subjects with 2 - Non-specific active suicidal thoughts (25 mg QD, Week 16-56) | Subjects with 3 - Active suicidal ideation with any methods (not plan) without intent to act (25 mg QD, Week 16-56) | Subjects with 4 - Active suicidal ideation with some intent to act, without specific plan (25 mg QD, Week 16-56) | Subjects with 5 - Active suicidal ideation with specific plan and intent (25 mg QD, Week 16-56) | Subjects with 6 - Preparatory acts or behavior (25 mg QD, Week 16-56) | Subjects with 7 - Aborted attempt (25 mg QD, Week 16-56) | Subjects with 8 - Interrupted attempt (25 mg QD, Week 16-56) | Subjects with 9 - Non-fatal suicide attempt (25 mg QD, Week 16-56) | Subjects with 10 - Completed suicide (25 mg QD, Week 16-56) | Subjects with suicidal behavior (25 mg QD, Week 16-56) | Subjects with suicidal ideation (25 mg QD, Week 16-56) | Subjects with suicidal ideation or behavior (25 mg QD, Week 16-56) | Subjects with 1 - Wish to be dead (50 mg QD, Week 16-56) | Subjects with 2 - Non-specific active suicidal thoughts (50 mg QD, Week 16-56) | Subjects with 3 - Active suicidal ideation with any methods (not plan) without intent to act (50 mg QD, Week 16-56) | Subjects with 4 - Active suicidal ideation with some intent to act, without specific plan (50 mg QD, Week 16-56) | Subjects with 5 - Active suicidal ideation with specific plan and intent (50 mg QD, Week 16-56) | Subjects with 6 - Preparatory acts or behavior (50 mg QD, Week 16-56) | Subjects with 7 - Aborted attempt (50 mg QD, Week 16-56) | Subjects with 8 - Interrupted attempt (50 mg QD, Week 16-56) | Subjects with 9 - Non-fatal suicide attempt (50 mg QD, Week 16-56) | Subjects with 10 - Completed suicide (50 mg QD, Week 16-56) | Subjects with suicidal behavior (50 mg QD, Week 16-56) | Subjects with suicidal ideation (50 mg QD, Week 16-56) | Subjects with suicidal ideation or behavior (50 mg QD, Week 16-56) | Subjects with 1 - Wish to be dead (50 mg QD, through Week 56) | Subjects with 2 - Non-specific active suicidal thoughts (50 mg QD, through Week 56) | Subjects with 3 - Active suicidal ideation with any methods (not plan) without intent to act (50 mg QD, through Week 56) | Subjects with 4 - Active suicidal ideation with some intent to act, without specific plan (50 mg QD, through Week 56) | Subjects with 5 - Active suicidal ideation with specific plan and intent (50 mg QD, through Week 56) | Subjects with 6 - Preparatory acts or behavior (50 mg QD, through Week 56) | Subjects with 7 - Aborted attempt (50 mg QD, through Week 56) | Subjects with 8 - Interrupted attempt (50 mg QD, through Week 56) | Subjects with 9 - Non-fatal suicide attempt (50 mg QD, through Week 56) | Subjects with 10 - Completed suicide (50 mg QD, through Week 56) | Subjects with suicidal behavior (50 mg QD, through Week 56) | Subjects with suicidal ideation (50 mg QD, through Week 56) | Subjects with suicidal ideation or behavior (50 mg QD, through Week 56) | Subjects with 1 - Wish to be dead (100 mg BID, Week 16-56) | Subjects with 2 - Non-specific active suicidal thoughts (100 mg BID, Week 16-56) | Subjects with 3 - Active suicidal ideation with any methods (not plan) without intent to act (100 mg BID, Week 16-56) | Subjects with 4 - Active suicidal ideation with some intent to act, without specific plan (100 mg BID, Week 16-56) | Subjects with 5 - Active suicidal ideation with specific plan and intent (100 mg BID, Week 16-56) | Subjects with 6 - Preparatory acts or behavior (100 mg BID, Week 16-56) | Subjects with 7 - Aborted attempt (100 mg BID, Week 16-56) | Subjects with 8 - Interrupted attempt (100 mg BID, Week 16-56) | Subjects with 9 - Non-fatal suicide attempt (100 mg BID, Week 16-56) | Subjects with 10 - Completed suicide (100 mg BID, Week 16-56) | Subjects with suicidal behavior (100 mg BID, Week 16-56) | Subjects with suicidal ideation (100 mg BID, Week 16-56) | Subjects with suicidal ideation or behavior (100 mg BID, Week 16-56) | Subjects with 1 - Wish to be dead (100 mg BID, through Week 56) | Subjects with 2 - Non-specific active suicidal thoughts (100 mg BID, through Week 56) | Subjects with 3 - Active suicidal ideation with any methods (not plan) without intent to act (100 mg BID, through Week 56) | Subjects with 4 - Active suicidal ideation with some intent to act, without specific plan (100 mg BID, through Week 56) | Subjects with 5 - Active suicidal ideation with specific plan and intent (100 mg BID, through Week 56) | Subjects with 6 - Preparatory acts or behavior (100 mg BID, through Week 56) | Subjects with 7 - Aborted attempt (100 mg BID, through Week 56) | Subjects with 8 - Interrupted attempt (100 mg BID, through Week 56) | Subjects with 9 - Non-fatal suicide attempt (100 mg BID, through Week 56) | Subjects with 10 - Completed suicide (100 mg BID, through Week 56) | Subjects with suicidal behavior (100 mg BID, through Week 56) | Subjects with suicidal ideation (100 mg BID, through Week 56) | Subjects with suicidal ideation or behavior (100 mg BID, through Week 56) | Subjects with 1 - Wish to be dead (100 mg QD, Week 16-56) | Subjects with 2 - Non-specific active suicidal thoughts (100 mg QD, Week 16-56) | Subjects with 3 - Active suicidal ideation with any methods (not plan) without intent to act (100 mg QD, Week 16-56) | Subjects with 4 - Active suicidal ideation with some intent to act, without specific plan (100 mg QD, Week 16-56) | Subjects with 5 - Active suicidal ideation with specific plan and intent (100 mg QD, Week 16-56) | Subjects with 6 - Preparatory acts or behavior (100 mg QD, Week 16-56) | Subjects with 7 - Aborted attempt (100 mg QD, Week 16-56) | Subjects with 8 - Interrupted attempt (100 mg QD, Week 16-56) | Subjects with 9 - Non-fatal suicide attempt (100 mg QD, Week 16-56) | Subjects with 10 - Completed suicide (100 mg QD, Week 16-56) | Subjects with suicidal behavior (100 mg QD, Week 16-56) | Subjects with suicidal ideation (100 mg QD, Week 16-56) | Subjects with 1 - Wish to be dead (100 mg QD, through Week 56) | Subjects with 2 - Non-specific active suicidal thoughts (100 mg QD, through Week 56) | Subjects with 3 - Active suicidal ideation with any methods (not plan) without intent to act (100 mg QD, through Week 56) | Subjects with 4 - Active suicidal ideation with some intent to act, without specific plan (100 mg QD, through Week 56) | Subjects with 5 - Active suicidal ideation with specific plan and intent (100 mg QD, through Week 56) | Subjects with 6 - Preparatory acts or behavior (100 mg QD, through Week 56) | Subjects with 7 - Aborted attempt (100 mg QD, through Week 56) | Subjects with 8 - Interrupted attempt (100 mg QD, through Week 56) | Subjects with 10 - Completed suicide (100 mg QD, through Week 56) | Subjects with suicidal ideation (100 mg QD, through Week 56) | Subjects with 1 - Wish to be dead [1] | Subjects with 2 - Non-specific active suicidal thoughts [1] | Subjects with 3 - Active suicidal ideation with any methods (not plan) without intent to act [1] | Subjects with 4 - Active suicidal ideation with some intent to act, without specific plan [1] | Subjects with 5 - Active suicidal ideation with specific plan and intent [1] | Subjects with 6 - Preparatory acts or behavior [1] | Subjects with 7 - Aborted attempt [1] | Subjects with 8 - Interrupted attempt [1] | Subjects with 9 - Non-fatal suicide attempt [1] | Subjects with 10 - Completed suicide [1] | Subjects with suicidal behavior [1] | Subjects with suicidal ideation [1] | Subjects with 1 - Wish to be dead (Combined, through Week 56) | Subjects with 2 - Non-specific active suicidal thoughts (Combined, through Week 56) | Subjects with 3 - Active suicidal ideation with any methods (not plan) without intent to act (Combined, through Week 56) | Subjects with 4 - Active suicidal ideation with some intent to act, without specific plan (Combined, through Week 56) | Subjects with 5 - Active suicidal ideation with specific plan and intent (Combined, through Week 56) | Subjects with 6 - Preparatory acts or behavior (Combined, through Week 56) | Subjects with 7 - Aborted attempt (Combined, through Week 56) | Subjects with 8 - Interrupted attempt (Combined, through Week 56) | Subjects with 10 - Completed suicide (Combined, through Week 56) | Subjects with suicidal ideation (Combined, through Week 56) | Subjects with 1 - Wish to be dead [2] | Subjects with 2 - Non-specific active suicidal thoughts [2] | Subjects with 3 - Active suicidal ideation with any methods (not plan) without intent to act [2] | Subjects with 4 - Active suicidal ideation with some intent to act, without specific plan [2] | Subjects with 5 - Active suicidal ideation with specific plan and intent [2] | Subjects with 6 - Preparatory acts or behavior [2] | Subjects with 7 - Aborted attempt [2] | Subjects with 8 - Interrupted attempt [2] | Subjects with 9 - Non-fatal suicide attempt [2] | Subjects with 10 - Completed suicide [2] | Subjects with suicidal behavior [2] | Subjects with suicidal ideation [2] | Subjects with suicidal ideation or behavior [2] | Subjects with 1 - Wish to be dead [3] | Subjects with 2 - Non-specific active suicidal thoughts [3] | Subjects with 3 - Active suicidal ideation with any methods (not plan) without intent to act [3] | Subjects with 4 - Active suicidal ideation with some intent to act, without specific plan [3] | Subjects with 5 - Active suicidal ideation with specific plan and intent [3] | Subjects with 6 - Preparatory acts or behavior [3] | Subjects with 7 - Aborted attempt [3] | Subjects with 8 - Interrupted attempt [3] | Subjects with 9 - Non-fatal suicide attempt [3] | Subjects with 10 - Completed suicide [3] | Subjects with suicidal behavior [3] | Subjects with suicidal ideation [3] | Subjects with suicidal ideation or behavior [3]
